Experimental data from patent US9302999B2, “Substituted triazoles as herbicides” (E. I. DU PONT DE NEMOURS AND COMPANY, priority 2012, dated 2016).
Read-outs that look alike come from different tables or passages of the source.

Tests used:
Assay type in all cases: in vivo
[1] = system: crabgrass, large (large crabgrass, Digitaria sanguinalis); assay: Test A pre-/postemergence: crabgrass, large; details: Digitaria sanguinalis, 240 h; for pest or weed control at 125 g/ha: 125 g ai/ha; for pest or weed control at 500 g/ha: 500 g ai/ha
Method in brief: (§1)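 Compounds, formulated with surfactant in non-phytotoxic solvent, were applied as a directed soil spray preemergence and as postemergence sprays to 2–10 cm, one- to two-leaf seedlings grown in loam soil blended with sand; visual injury, 0–100, assessed ~10 days post-treatment against untreated controls.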

[2] = system: morningglory (Ipomoea spp.); assay: Test A pre-/postemergence: morningglory; details: Ipomoea, 240 h; for pest or weed control at 125 g/ha: 125 g ai/ha; for pest or weed control at 500 g/ha: 500 g ai/ha
Method in brief: as §1

[3] = system: pigweed (Amaranthus retroflexus); assay: Test A pre-/postemergence: pigweed; details: Amaranthus retroflexus, 240 h; for pest or weed control at 125 g/ha: 125 g ai/ha; for pest or weed control at 500 g/ha: 500 g ai/ha
Method in brief: as §1

[4] = system: barnyardgrass (Echinochloa crus-galli); assay: Test A pre-/postemergence: barnyardgrass; details: Echinochloa crus-galli, 240 h; for pest or weed control at 125 g/ha: 125 g ai/ha; for pest or weed control at 500 g/ha: 500 g ai/ha
Method in brief: as §1

[5] = post-emergence, Postemergence, 0 to 100 scale, 0 is no effect, 100 is complete control, read-out: Crabgrass, Large plant response rating
[6] = post-emergence, Postemergence, visual rating on 0 to 100 scale (0 no effect, 100 complete control), approximately ten days, read-out: Crabgrass, Large plant response rating
[7] = pre-emergence, Preemergence, 0 to 100 scale where 0 is no effect and 100 is complete control, read-out: Plant response rating, Crabgrass, Large
[8] = pre-emergence, Preemergence, 0 to 100 scale (0 no effect, 100 complete control), read-out: Plant response rating, Crabgrass, Large
[9] = post-emergence, Postemergence, 0 to 100 scale, 0 is no effect, 100 is complete control, read-out: Morningglory plant response rating
[10] = post-emergence, Postemergence, visual rating on 0 to 100 scale (0 no effect, 100 complete control), approximately ten days, read-out: Morningglory plant response rating
[11] = pre-emergence, Preemergence, 0 to 100 scale where 0 is no effect and 100 is complete control, read-out: Plant response rating, Morningglory
[12] = pre-emergence, Preemergence, 0 to 100 scale (0 no effect, 100 complete control), read-out: Plant response rating, Morningglory
[13] = post-emergence, Postemergence, 0 to 100 scale, 0 is no effect, 100 is complete control, read-out: Pigweed plant response rating
[14] = post-emergence, Postemergence, visual rating on 0 to 100 scale (0 no effect, 100 complete control), approximately ten days, read-out: Pigweed plant response rating
[15] = pre-emergence, Preemergence, 0 to 100 scale where 0 is no effect and 100 is complete control, read-out: Plant response rating, Pigweed
[16] = pre-emergence, Preemergence, 0 to 100 scale (0 no effect, 100 complete control), read-out: Plant response rating, Pigweed
[17] = post-emergence, Postemergence, 0 to 100 scale, 0 is no effect, 100 is complete control, read-out: Barnyardgrass plant response rating
[18] = post-emergence, Postemergence, visual rating on 0 to 100 scale (0 no effect, 100 complete control), approximately ten days, read-out: Barnyardgrass plant response rating
[19] = pre-emergence, Preemergence, 0 to 100 scale where 0 is no effect and 100 is complete control, read-out: Plant response rating, Barnyardgrass
[20] = pre-emergence, Preemergence, 0 to 100 scale (0 no effect, 100 complete control), read-out: Plant response rating, Barnyardgrass

COCc1nn(-c2ccc(C(F)(F)F)cc2)nc1Oc1cccc(OC(F)(F)F)c1 [Compound 115, 4-(methoxymethyl)-5-[3-(trifluoromethoxy)phenoxy]-2-[4-(trifluoromethyl)phenyl]-2H-1,2,3-triazole]
pest or weed control at 125 g/ha [1, 5]: 50%
pest or weed control at 500 g/ha [1, 6]: 80%
pest or weed control at 125 g/ha [1, 7]: 80%
pest or weed control at 500 g/ha [1, 8]: 100%
pest or weed control at 125 g/ha [2, 9]: 90%
pest or weed control at 500 g/ha [2, 10]: 100%
pest or weed control at 125 g/ha [2, 11]: 0%
pest or weed control at 500 g/ha [2, 12]: 10%
pest or weed control at 125 g/ha [3, 13]: 80%
pest or weed control at 500 g/ha [3, 14]: 100%
pest or weed control at 125 g/ha [3, 15]: 100%
pest or weed control at 500 g/ha [3, 16]: 100%
pest or weed control at 125 g/ha [4, 17]: 20%
pest or weed control at 500 g/ha [4, 18]: 30%
pest or weed control at 125 g/ha [4, 19]: 30%
pest or weed control at 500 g/ha [4, 20]: 60%

FCc1nn(-c2ccc(C(F)(F)F)cc2)nc1Oc1cccc(OC(F)(F)F)c1 [Compound 116, 4-(fluoromethyl)-5-[3-(trifluoromethoxy)phenoxy]-2-[4-(trifluoromethyl)phenyl]-2H-1,2,3-triazole]
pest or weed control at 125 g/ha [1, 5]: 40%
pest or weed control at 500 g/ha [1, 6]: 80%
pest or weed control at 125 g/ha [1, 7]: 70%
pest or weed control at 500 g/ha [1, 8]: 100%
pest or weed control at 125 g/ha [2, 9]: 70%
pest or weed control at 500 g/ha [2, 10]: 100%
pest or weed control at 125 g/ha [2, 11]: 0%
pest or weed control at 500 g/ha [2, 12]: 10%
pest or weed control at 125 g/ha [3, 13]: 50%
pest or weed control at 500 g/ha [3, 14]: 100%
pest or weed control at 125 g/ha [3, 15]: 50%
pest or weed control at 500 g/ha [3, 16]: 100%
pest or weed control at 125 g/ha [4, 17]: 10%
pest or weed control at 500 g/ha [4, 18]: 20%
pest or weed control at 125 g/ha [4, 19]: 0%
pest or weed control at 500 g/ha [4, 20]: 30%
